Results: US4528194A, “2-(4-Diphenylmethylpiperazinyl)-1-phenyl alkanol or their salts, a process for their production and a cerebral circulation-improving drug” (Nippon Chemiphar Co., Ltd., priority 1982, dated 1985)
Where a name gives a salt, the structure may show the parent alone. Read-outs that look alike come from different tables or passages of the source.

Legend:
[1] = Test 3: Acute Toxicity, oral, rats; conditions: rat, in vivo, 7 days observation
Description: (§1) Certain test compounds of the invention were administered orally to SD-strain female or male rats each having a body weight of 150 to 200 g of ddN-strain male mice each having a body weight of about 20 g.

[2] = system: vertebral blood flow and femoral blood flow; experiment: Test 1: Peripheral Vasodilating Effect; assay type: in vivo, Mongrel dogs; conditions: 1 mg/kg i.v.; for Percentage of vertebral blood flow increase / Percentage of vertebral blood flow increase against percentage of femoral blood flow increase: anesthetized dogs, 5% aqueous tartaric acid solution, except compounds footnoted: (1) dimethylsulfoxide, (2) distilled water, (3) physiological saline
Description: Mongrel dogs of both sexes each weighing about 10 kg were anesthetized with sodium pentobarbital (35 mg/kg, i.v.). Artificial respiration was performed with room air. The vertebral blood flow and femoral blood flow were measured by an electromagnetic flowmeter (Nihon Koden, MF-27) with flow probes. The blood pressure and heart rate were measured at the same time. For intravenous administration of each compound (1 mg/kg), the cephalic vein was cannulated and the compound solution injected.

[3] = system: platelets (ADP-induced coagulation); experiment: Test 2: Platelet Anti-coagulating Effect, ADP-induced coagulation; assay type: in vivo, Male Wistar rats; conditions: Rattus norvegicus, 250 mg/kg oral, rats, 3 hours after administration, ADP 2.7 uM, read-out: Inhibition percentage, ADP (2.7 uM)
Description: (§2) Male Wistar rats each having a body weight of about 300 g were orally administered with the test compounds. With the lapse of 3 hours after administration of the compound, each rate was anesthetized with ether, and the blood was collected from its abdominal vein. […] The blood was centrifuged at 1,000 rpm for 10 minutes. The resultant platelet-rich plasma (PRP) was centrifuged for further 10 minutes at 3,000 rpm, thereby collecting a platelet-poor plasma (PPP).
(§3) ADP or collagen was added to the PRP obtained above to induce coagulation, and the thus coagulated platelets were measured by turbidimetry using a platelet aggregation tracer ("PAT-4A", tradename of Niko Kizai Kabushiki Kaisha, Japan). The coagulation inhibition percentage was determined by the following equation: [formula] A: Maximum percentage of coagulation when a compound was administered B: Maximum percentage of coagulation when physiological saline was administered

[4] = system: platelets (collagen-induced coagulation); experiment: Test 2: Platelet Anti-coagulating Effect, collagen-induced coagulation; assay type: in vivo, Male Wistar rats; conditions: Rattus norvegicus; for inhibition at 250 mg/kg: 250 mg/kg oral, collagen 17.4 ug/ml, read-out: Inhibition percentage, Collagen (17.4 ug/ml)
Description: as §2, §3

[5] = Test 3: Acute Toxicity, oral, mice; conditions: mouse, in vivo, 7 days observation
Description: as §1

[6] = 200 mg/kg oral, rats, 3 hours after administration, collagen 6.25 ug/ml, read-out: Inhibition percentage, Collagen (6.25 ug/ml)
[7] = rats, 3 hours after administration
[8] = footnote * of Table 1, dogs, in dimethylsulfoxide

Compound | Percentage of vertebral blood flow increase [2] [%] | Percentage of vertebral blood flow increase against percentage of femoral blood flow increase [2] | LD50 at 168 h [5] [mg/kg] | other results
C[C@@H]([C@H](O)c1ccc(O)cc1)N1CCN(C(c2ccccc2)c2ccccc2)CC1 (relative stereo) [Inventive compound 2, dl-erythro-2-(4-Diphenylmethylpiperazinyl)-1-(4-hydroxyphenyl)propanol.1/2tartrate] | 66 | 3.5 |  | LD50 at 168 h [1]: > 2000 mg/kg; inhibition at 250 mg/kg [3]: 16%; inhibition at 200 mg/kg [4, 6]: 40%; inhibition at 250 mg/kg [4, 7]: 17%
C[C@@H]([C@@H](O)c1ccc(O)cc1)N1CCN(C(c2ccccc2)c2ccccc2)CC1 (relative stereo) [Inventive compound 3, dl-threo-2-(4-Diphenylmethylpiperazinyl)-1-(4-hydroxyphenyl)propanol.tartrate] | 60 | 3.2 |  | 
C[C@@H]([C@@H](O)c1ccc(OCc2ccccc2)cc1)N1CCN(C(c2ccccc2)c2ccccc2)CC1 (relative stereo) [Inventive compound 6, dl-threo-1-(4-Benzyloxyphenyl)-2-(4-diphenylmethylpiperazinyl)propanol.dihydrochloride] | 96 | 8.5 |  | 
CC(=O)Oc1ccccc1C(=O)O [Aspirin, reference compound] |  |  |  | inhibition at 200 mg/kg ([4]; read-out: inhibition against collagen): 99%
Oc1ccc(C(O)CN2CCN(C(c3ccccc3)c3ccccc3)CC2)cc1 (stereo not shown) [Inventive compound 1, 2-(4-Diphenylmethylpiperazinyl)-1-(4-hydroxyphenyl)ethanol.monohydrochloride] | 76 | 3.6 |  | LD50 at 168 h [1]: > 2000 mg/kg; inhibition at 250 mg/kg [3]: 28%; inhibition at 200 mg/kg [4, 6]: 81%; inhibition at 250 mg/kg [4, 7]: 25%
OC(CN1CCN(C(c2ccccc2)c2ccccc2)CC1)c1ccc(OCc2ccccc2)cc1 (stereo not shown) [Inventive compound 4, 1-(4-Benzyloxyphenyl)-2-(4-diphenylmethylpiperazinyl)ethanol.monohydrochloride] | 90 | 5.8 | > 2000 | 
OC(CN1CCN(C(c2ccccc2)c2ccccc2)CC1)c1ccc(OCc2ccccc2)cc1OCc1ccccc1 (stereo not shown) [Inventive compound 5, 1-(2,4-Dibenzyloxyphenyl)-2-(4-diphenylmethylpiperazinyl)ethanol.monohydrochloride] | 62 | 15.3 | > 2000 | blood flow increase, course [2, 8]: increased in two phases; increased blood flow lasted for [2, 8]: 30 min
COc1ccc(C(O)CN2CCN(C(c3ccccc3)c3ccccc3)CC2)c(OC)c1 (stereo not shown) [Inventive compound 7, 1-(2,4-Dimethoxyphenyl)-2-(4-diphenylmethylpiperazinyl)ethanol.dihydrochloride] | 123 | 5.8 | 350 | 
COc1ccc(C(O)CN2CCN(C(c3ccccc3)c3ccccc3)CC2)cc1OC (stereo not shown) [Inventive compound 8, 1-(3,4-Dimethoxyphenyl)-2-(4-diphenylmethylpiperazinyl)ethanol.dihydrochloride] | 84 | 15.3 | 470 | 
COc1ccc(C(O)CN2CCN(C(c3ccccc3)c3ccccc3)CC2)c(OC)c1OC (stereo not shown) [Inventive compound 9, 2-(4-Diphenylmethylpiperazinyl)-1-(2,3,4-trimethoxyphenyl)ethanol.dihydrochloride] | 124 | 6.1 | 1230 | inhibition at 200 mg/kg [4, 6]: 90%
COc1cc(C(O)CN2CCN(C(c3ccccc3)c3ccccc3)CC2)cc(OC)c1OC (stereo not shown) [Inventive compound 10, 2-(4-Diphenylmethylpiperazinyl)-1-(3,4,5-trimethoxyphenyl)ethanol.monohydrochloride] | 95 | 4.6 | > 2000 | 
C=CCOc1ccc(C(O)CN2CCN(C(c3ccccc3)c3ccccc3)CC2)cc1 (stereo not shown) [Inventive compound 11, 1-(4-Allyloxyphenyl)-2-(4-diphenylmethylpiperazinyl)ethanol.monohydrochloride] | 93 | 2.0 | > 2000 | 
C=CCOc1cc(OC)ccc1C(O)CN1CCN(C(c2ccccc2)c2ccccc2)CC1 (stereo not shown) [Inventive compound 12, 1-(2-Allyloxy-4-methoxyphenyl)-2-(4-diphenylmethylpiperazinyl)ethanol.dihydrochloride] | 123 | 7.7 |  | 
Oc1ccccc1C(O)CN1CCN(C(c2ccccc2)c2ccccc2)CC1 (stereo not shown) [compound 1, 2-(4-Diphenylmethylpiperazinyl)-1-(2-hydroxyphenyl)ethanol.monohydrochloride, reference compound] | 26 | 1.2 |  | 
OC(CN1CCN(C(c2ccccc2)c2ccccc2)CC1)c1ccccc1 (stereo not shown) [compound 2, 2-(4-Diphenylmethylpiperazinyl)-1-phenylethanol.dihydrochloride, reference compound] | 25 | 1.3 |  | 
CC(O)(CN1CCN(C(c2ccccc2)c2ccccc2)CC1)c1ccccc1 (stereo not shown) [compound 3, 2-(4-Diphenylmethylpiperazinyl)-1-methyl-1-phenylethanol.dihydrochloride, reference compound] | 20 | 1.1 |  | 
CN(C)CCCOC1(Cc2ccccc2)CCCCCC1 [compound 4, Bencyclane fumarate, reference compound] | 67 | 2.9 |  | inhibition at 250 mg/kg [3]: 0%; inhibition at 250 mg/kg [4, 7]: 0%
C(=C\c1ccccc1)/CN1CCN(C(c2ccccc2)c2ccccc2)CC1 [compound 5, Cinnarizine, reference compound] | 60 | 2.5 |  | 
